Results taken from ChEMBL document CHEMBL1201862, “PubChem BioAssay data set” (2004).
Active and inactive are the calls of the source.

Tests used:
[1] = test system: Streptococcus sp. 'group A'; experiment: Streptococcus pyogenes SK(-)GAS viability under kanamycin – luminescence, BacTiterGlo, confirmation, counter-screen for streptokinase expression inhibitor project, dose response (AID 1900); format: functional, organism-based
[2] = biological target: Heat shock protein HSP 90-alpha (Homo sapiens, UniProt P07900); experiment: Luminescence-based dose response biochemical high throughput screening assay for inhibitors of the Heat Shock Protein 90 (HSP90). [Related pubchem assays: 1831 (Summary AID.), 1846 (Confirmation screen.), 1789 (Primary screen.)]
INS1 = experiment: INS-1E survival protection against cytokine death – cell-based, luminescence, retest, dose response (AID 449756); format: functional; conditions: Rattus norvegicus;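 also: cell death triggered by IL-1 beta plus TNF-alpha plus IFN-gamma mixture; protective hits raise ATP signal compared with cytokine alone wells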
[3] = fluconazole-exposed Candida albicans growth modulators – fluorescence, retest, confirmation (AID 2467); format: functional, cell-based
[4] = Vero E6 cell cytotoxicity, dose response, cytotoxicity control for non-replicating M. tuberculosis project, secondary assay (AID 492998); format: functional, VeroE6; conditions: Vero C1008
cells = format: functional
Nonstructural protein 1 = Nonstructural protein 1 (Influenza A virus, UniProt Q194T2); format: functional, Influenza A virus (A/California/07/2009(H1N1))
Sequence of Nonstructural protein 1 (Q194T2 whole entry): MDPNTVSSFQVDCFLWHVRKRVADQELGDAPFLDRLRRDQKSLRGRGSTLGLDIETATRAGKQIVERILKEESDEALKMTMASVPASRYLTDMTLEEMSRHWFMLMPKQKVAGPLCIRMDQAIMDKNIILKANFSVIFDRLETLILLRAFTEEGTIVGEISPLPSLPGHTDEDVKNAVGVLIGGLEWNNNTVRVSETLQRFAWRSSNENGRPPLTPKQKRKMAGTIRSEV

[5] = HepG2 cell cytotoxicity, dose response, cytotoxicity control for non-replicating M. tuberculosis project (AID 489018); format: functional; conditions: Mycobacterium tuberculosis
Hexokinase HKDC1 = biological target: T1, Hexokinase HKDC1 (Homo sapiens, UniProt Q2TB90); experiment: inhibition of HKDC1 glucose phosphorylation – biochemical, W721R variant, dose response (AID 504729); format: functional
T1 sequence (Q2TB90 whole entry): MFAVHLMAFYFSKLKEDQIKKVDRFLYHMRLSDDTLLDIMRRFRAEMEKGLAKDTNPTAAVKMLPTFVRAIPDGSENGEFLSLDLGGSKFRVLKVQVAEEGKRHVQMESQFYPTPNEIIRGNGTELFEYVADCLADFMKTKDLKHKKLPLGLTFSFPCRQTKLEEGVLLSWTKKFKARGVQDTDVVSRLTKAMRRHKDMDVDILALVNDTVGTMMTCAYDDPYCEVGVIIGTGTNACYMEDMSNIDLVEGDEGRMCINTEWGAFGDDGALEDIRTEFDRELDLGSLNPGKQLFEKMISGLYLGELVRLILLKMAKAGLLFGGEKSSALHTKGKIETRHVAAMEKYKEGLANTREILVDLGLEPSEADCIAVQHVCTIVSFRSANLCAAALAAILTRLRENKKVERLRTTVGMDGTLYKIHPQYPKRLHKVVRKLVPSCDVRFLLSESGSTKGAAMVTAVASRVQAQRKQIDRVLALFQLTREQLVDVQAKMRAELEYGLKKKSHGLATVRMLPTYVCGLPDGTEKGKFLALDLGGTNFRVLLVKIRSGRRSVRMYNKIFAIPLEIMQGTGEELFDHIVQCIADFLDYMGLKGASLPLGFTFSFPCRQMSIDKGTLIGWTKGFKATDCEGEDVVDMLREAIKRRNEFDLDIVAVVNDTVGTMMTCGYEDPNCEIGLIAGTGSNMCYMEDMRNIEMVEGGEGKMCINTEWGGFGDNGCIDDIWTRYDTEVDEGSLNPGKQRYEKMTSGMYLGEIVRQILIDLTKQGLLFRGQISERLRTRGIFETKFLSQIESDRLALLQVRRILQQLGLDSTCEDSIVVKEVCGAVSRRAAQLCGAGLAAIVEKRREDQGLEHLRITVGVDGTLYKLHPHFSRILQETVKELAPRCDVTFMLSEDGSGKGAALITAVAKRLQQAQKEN

O=C1C(Nc2ccccc2)=C/C(=N/S(=O)(=O)c2cccs2)c2ccccc21
active: EC50 [1] 2.81 µM | IC50 [2] 0.348 µM | AC50 (INS1) 0.907 µM | EC50 [3] 1.35 µM | CC50 [4] 7.43 µM | IC50 (cells) 14.2 µM | IC50 (Nonstructural protein 1) 9.04 µM | CC50 [5] 13.9 µM | IC50 (Hexokinase HKDC1) 4.88 µM
